{"source": "the supplement of paper PMC10307832", "assay_in_all_cases": "relative viability (nuclei count vs DMSO), 5 days (fraction); higher = more cells survive", "key": {"[1]": {"test_system": "NCI-H1755", "outline": "(§1)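 Five library-drug doses in √10 steps were combined with a fixed anchor-drug dose, or a single drug was given alone, by pin tool to lung cancer cell lines in 1536-well plates the day after seeding. Nuclei were stained and counted after 5 days. Relative viability is the nuclei count in treated wells over that in vehicle wells, taken as the median of duplicate plates.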"}, "[2]": {"test_system": "NCI-H1793", "outline": "as §1"}, "[3]": {"test_system": "NCI-H1944", "outline": "as §1"}, "[4]": {"test_system": "NCI-H2087", "outline": "as §1"}, "[5]": {"test_system": "NCI-H2170", "outline": "as §1"}, "[6]": {"test_system": "NCI-H2228", "outline": "as §1"}, "[7]": {"test_system": "NCI-H2405", "outline": "as §1"}, "[8]": {"test_system": "NCI-H3122", "outline": "as §1"}, "[9]": {"test_system": "NCI-H460", "outline": "as §1"}, "[10]": {"test_system": "PC-3 [JPC-3]", "outline": "as §1"}, "[11]": {"test_system": "RERF-LC-KJ", "outline": "as §1"}, "[12]": {"test_system": "UMC-11", "outline": "as §1"}}, "data": [{"smiles": "NC(=O)Nc1cc(-c2cccc(F)c2)sc1C(=O)N[C@H]1CCCNC1", "note": "[AZD7762] + Cc1nc(Nc2ncc(C(=O)Nc3c(C)cccc3Cl)s2)cc(N2CCN(CCO)CC2)n1 [Dasatinib] (partner 0.075 µM)", "values": [{"measurement": "relative viability", "setting": "[1]; first compound 0.1 µM", "result": 0.416}, {"measurement": "relative viability", "setting": "[1]; first compound 0.3162 µM", "result": 0.325}, {"measurement": "relative viability", "setting": "[1]; first compound 1 µM", "result": 0.215}, {"measurement": "relative viability", "setting": "[2]; first compound 0.01 µM", "result": 0.408}, {"measurement": "relative viability", "setting": "[2]; first compound 0.03162 µM", "result": 0.388}, {"measurement": "relative viability", "setting": "[2]; first compound 0.1 µM", "result": 0.426}, {"measurement": "relative viability", "setting": "[2]; first compound 0.3162 µM", "result": 0.482}, {"measurement": "relative viability", "setting": "[2]; first compound 1 µM", "result": 0.276}, {"measurement": "relative viability", "setting": "[3]; first compound 0.01 µM", "result": 0.231}, {"measurement": "relative viability", "setting": "[3]; first compound 0.03162 µM", "result": 0.238}, {"measurement": "relative viability", "setting": "[3]; first compound 0.1 µM", "result": 0.252}, {"measurement": "relative viability", "setting": "[3]; first compound 0.3162 µM", "result": 0.256}, {"measurement": "relative viability", "setting": "[3]; first compound 1 µM", "result": 0.232}, {"measurement": "relative viability", "setting": "[4]; first compound 0.01 µM", "result": 0.887}, {"measurement": "relative viability", "setting": "[4]; first compound 0.03162 µM", "result": 0.979}, {"measurement": "relative viability", "setting": "[4]; first compound 0.1 µM", "result": 0.919}, {"measurement": "relative viability", "setting": "[4]; first compound 0.3162 µM", "result": 0.773}, {"measurement": "relative viability", "setting": "[4]; first compound 1 µM", "result": 0.517}, {"measurement": "relative viability", "setting": "[5]; first compound 0.01 µM", "result": 0.602}, {"measurement": "relative viability", "setting": "[5]; first compound 0.03162 µM", "result": 0.584}, {"measurement": "relative viability", "setting": "[5]; first compound 0.1 µM", "result": 0.507}, {"measurement": "relative viability", "setting": "[5]; first compound 0.3162 µM", "result": 0.529}, {"measurement": "relative viability", "setting": "[5]; first compound 1 µM", "result": 0.401}, {"measurement": "relative viability", "setting": "[6]; first compound 0.01 µM", "result": 0.67}, {"measurement": "relative viability", "setting": "[6]; first compound 0.03162 µM", "result": 0.606}, {"measurement": "relative viability", "setting": "[6]; first compound 0.1 µM", "result": 0.373}, {"measurement": "relative viability", "setting": "[6]; first compound 0.3162 µM", "result": 0.204}, {"measurement": "relative viability", "setting": "[6]; first compound 1 µM", "result": 0.125}, {"measurement": "relative viability", "setting": "[7]; first compound 0.01 µM", "result": 0.234}, {"measurement": "relative viability", "setting": "[7]; first compound 0.03162 µM", "result": 0.216}, {"measurement": "relative viability", "setting": "[7]; first compound 0.1 µM", "result": 0.228}, {"measurement": "relative viability", "setting": "[7]; first compound 0.3162 µM", "result": 0.157}, {"measurement": "relative viability", "setting": "[7]; first compound 1 µM", "result": 0.177}, {"measurement": "relative viability", "setting": "[8]; first compound 0.01 µM", "result": 0.893}, {"measurement": "relative viability", "setting": "[8]; first compound 0.03162 µM", "result": 0.739}, {"measurement": "relative viability", "setting": "[8]; first compound 0.1 µM", "result": 0.823}, {"measurement": "relative viability", "setting": "[8]; first compound 0.3162 µM", "result": 0.544}, {"measurement": "relative viability", "setting": "[8]; first compound 1 µM", "result": 0.625}, {"measurement": "relative viability", "setting": "[9]; first compound 0.01 µM", "result": 0.531}, {"measurement": "relative viability", "setting": "[9]; first compound 0.03162 µM", "result": 0.578}, {"measurement": "relative viability", "setting": "[9]; first compound 0.1 µM", "result": 0.443}, {"measurement": "relative viability", "setting": "[9]; first compound 0.3162 µM", "result": 0.304}, {"measurement": "relative viability", "setting": "[9]; first compound 1 µM", "result": 0.0715}, {"measurement": "relative viability", "setting": "[10]; first compound 0.01 µM", "result": 1.05}, {"measurement": "relative viability", "setting": "[10]; first compound 0.03162 µM", "result": 0.961}, {"measurement": "relative viability", "setting": "[10]; first compound 0.1 µM", "result": 0.969}, {"measurement": "relative viability", "setting": "[10]; first compound 0.3162 µM", "result": 1.01}, {"measurement": "relative viability", "setting": "[10]; first compound 1 µM", "result": 0.716}, {"measurement": "relative viability", "setting": "[11]; first compound 0.01 µM", "result": 0.847}, {"measurement": "relative viability", "setting": "[11]; first compound 0.03162 µM", "result": 0.896}, {"measurement": "relative viability", "setting": "[11]; first compound 0.1 µM", "result": 0.858}, {"measurement": "relative viability", "setting": "[11]; first compound 0.3162 µM", "result": 0.782}, {"measurement": "relative viability", "setting": "[11]; first compound 1 µM", "result": 0.563}, {"measurement": "relative viability", "setting": "[12]; first compound 0.01 µM", "result": 0.516}, {"measurement": "relative viability", "setting": "[12]; first compound 0.03162 µM", "result": 0.447}, {"measurement": "relative viability", "setting": "[12]; first compound 0.1 µM", "result": 0.407}, {"measurement": "relative viability", "setting": "[12]; first compound 0.3162 µM", "result": 0.392}, {"measurement": "relative viability", "setting": "[12]; first compound 1 µM", "result": 0.215}]}]}
